Experimental data reported in publication PMC10685318, “Trans-cyclosulfamidate mannose-configured cyclitol allows isoform-dependent inhibition of GH47 α-D-mannosidases through a bump–hole strategy” (Chemical Science, 2023).

Molecular target: T1, MAN2B1 (Homo sapiens, UniProt O00754)
T1 construct: expressed in transfected cells
T1 sequence (O00754 50-1011): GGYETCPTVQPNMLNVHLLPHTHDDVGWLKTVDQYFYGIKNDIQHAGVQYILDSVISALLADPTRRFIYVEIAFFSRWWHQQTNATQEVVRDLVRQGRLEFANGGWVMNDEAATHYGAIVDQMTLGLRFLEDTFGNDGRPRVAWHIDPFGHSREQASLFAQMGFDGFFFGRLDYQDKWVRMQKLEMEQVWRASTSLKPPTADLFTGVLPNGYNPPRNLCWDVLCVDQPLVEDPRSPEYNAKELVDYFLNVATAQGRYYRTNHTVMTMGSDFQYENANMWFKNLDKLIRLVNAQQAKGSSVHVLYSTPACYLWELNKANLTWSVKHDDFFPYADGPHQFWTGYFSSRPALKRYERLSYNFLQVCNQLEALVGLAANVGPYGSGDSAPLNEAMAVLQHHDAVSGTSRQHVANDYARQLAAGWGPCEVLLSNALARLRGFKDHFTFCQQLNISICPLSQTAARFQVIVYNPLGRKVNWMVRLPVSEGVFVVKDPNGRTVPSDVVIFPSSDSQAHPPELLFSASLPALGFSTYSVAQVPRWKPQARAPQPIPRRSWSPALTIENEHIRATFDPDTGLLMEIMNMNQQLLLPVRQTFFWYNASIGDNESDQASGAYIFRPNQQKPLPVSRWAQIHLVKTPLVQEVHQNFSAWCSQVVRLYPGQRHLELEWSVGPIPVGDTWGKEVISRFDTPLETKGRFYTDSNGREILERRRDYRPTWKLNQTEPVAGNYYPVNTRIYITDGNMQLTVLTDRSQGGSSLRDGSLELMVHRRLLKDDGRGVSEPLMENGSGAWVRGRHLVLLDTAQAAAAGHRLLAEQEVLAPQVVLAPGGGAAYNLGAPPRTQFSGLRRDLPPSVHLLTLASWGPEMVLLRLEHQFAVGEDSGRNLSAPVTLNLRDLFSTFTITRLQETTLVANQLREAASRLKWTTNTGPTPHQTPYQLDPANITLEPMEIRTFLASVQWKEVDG
Test: 4-MU-α-man activity assay in overexpressed cell lysates
Format: biochemical
From the text: Finally, selectivity versus a panel of related exo-mannosidases was investigated. We first tested inhibition against all five human GH38 retaining α-mannosidases in overexpressed cell lysates using 4-methylumbelliferyl-α-mannoside (4-MU-α-man): Golgi mannosidase II and IIx (MAN2A1 and MAN2A2), cytosolic MAN2C1 and lysosomal MAN2B1 and MAN2B2. This α-mannosidase family follows a different conformational itinerary than GH47: ^0S2 → B2,5 → ^1S5.[35] […] Of note, the presence of cobalt has been associated with conformational changes in the active site of some GH38 α-mannosidases, which might affect the binding interaction with inhibitors.[36] Nevertheless, additional research is required to explore which specific metal ion is present in the MAN2C1 active site in its in vivo state.
Trans-Cyclosulfamidate Cyclitols Males et al.
2.3 GH38 α-mannosidases and GH2 β-mannosidase inhibition studies
All chemicals were of analytical grade and purchased from Sigma-Aldrich unless stated otherwise.
Optimal stability of cell homogenates and enzyme working stocks was ensured by preparation and temporary storage on ice. Cell homogenates were prepared and used on the same day. Protein concentrations were quantified using the Pierce BCA Protein Assay Kit (ThermoFisher). Protein samples were measured in clear flat-bottom polystyrene 96 well microplates (Greiner Bio-One) using a EMax Plus Microplate Reader (Molecular Devices). Activity measurements of human GH38 α-mannosidases and bacterial β-mannosidase BtMan2A were performed in black flat-bottom polystyrene 96 wells microplates (Greiner Bio-One) and total fluorescence was measured using a Perkin Elmer LS-55 fluorescence spectrometer at wavelengths λex = 366 and λem = 445 nm, with the signal optimized for medium gain readings. The fluorescence values of each enzyme sample were corrected for the background signal of a blank sample containing no enzyme. In the case of IC50 determinations, values were normalized against a control sample containing enzyme without added inhibitor. For a single experiment, three separate curves were fitted from a technical triplicate by setting the inhibitor concentration in µM against the normalized response using GraphPad Prism 8.4.2 software. The Prism functions ‘[inhibitor] versus normalized response’ and ‘[inhibitor] versus normalized response -- variable slope’ were compared for each curve using the Akaike’s Information Criterion method to select the preferred model. Reported IC50 values are mean ± standard deviation from a biological […]
General cell culture protocol
HEK293T cells were grown to confluency at 37 °C under a 5% CO2 atmosphere in Dulbecco’s Modified Eagle’s Medium (DMEM) with a high glucose concentration (Capricorn Scientific, DMEM-HPXA) that was supplemented with 10% fetal calf serum, 0.1% (w/v) penicillin/streptomycin and 1% (v/v) Glutamax. Cells were passaged twice a week to new round polystyrene (PS) tissue culture dishes (Sarstedt) by detachment off the former culture plates by careful pipetting. To prepare cell pellets for activity measurements, plates were grown to confluency and harvested in phosphate buffered saline (PBS). After centrifugation at 1500 rpm for 5 min, the remaining PBS was aspirated and the cells were resuspended in fresh PBS. The concentration of the resulting suspension was then counted using a TC20 automated cell counter (BioRad). Aliquots were centrifuged at 2000 rpm for 5 min and the resulting cell pellets were stored at -80 °C until further use.
4-MU activity assay protocol for human GH38 α-mannosidases
HEK293T cells stably overexpressing human GH38 α-mannosidases MAN2A1, MAN2A2, MAN2B1, MAN2B2 and MAN2C1 were prepared as previously described[11] and were kindly donated by Dr. C. L.
Kuo. Homogenates were prepared by sonicating cell pellets (Sonics VibraCell, 5x1 s with 30 s interval at 20% amplitude) in 150 mM McIlvain buffer of pH 5.5 (MAN2A1, MAN2A2), pH 4.5 (MAN2B1, MAN2B2) or pH 6.7 (MAN2C1) containing either 2 mM ZnCl2 (MAN2A1, MAN2A2, MAN2B1, MAN2B2) […]

Structure (SMILES): O=S1(=O)N[C@@H]2[C@@H](O)[C@@H](O)[C@H](O)[C@@H](CO)[C@H]2O1 [compound 6, 1,6-trans-manno-cyclosulfamidate]
- activity when the buffer was enriched with CoCl2 (CoCl2): no activity
- IC50 (Zn2+): > 1000 µM
